Experimental data from ChEMBL document CHEMBL5260807, “Discovery of liver-directed glucokinase activator having anti-hyperglycemic effect without hypoglycemia” (Eur J Med Chem, 2017).

Experiments:
[1] = Drug distribution in C57BL/6J mouse liver at 30 mg/kg,po and measured after 1 hrs by LC-MS/MS analysis; type: ADME, organism-based; conditions: read-out: Drug uptake
[2] = Drug distribution in C57BL/6J mouse liver at 30 mg/kg,po and measured after 3 hrs by LC-MS/MS analysis; type: ADME, organism-based; conditions: read-out: Drug uptake
Hexokinase-4 = molecular target: T1, Hexokinase-4 (Homo sapiens, UniProt P35557); test: Activation of recombinant human glucokinase assessed as increase in maximal activation by measuring accumulation of NADH in presence of S0.5 of glucose and NAD by plate reader analysis
T1 sequence (P35557 whole entry): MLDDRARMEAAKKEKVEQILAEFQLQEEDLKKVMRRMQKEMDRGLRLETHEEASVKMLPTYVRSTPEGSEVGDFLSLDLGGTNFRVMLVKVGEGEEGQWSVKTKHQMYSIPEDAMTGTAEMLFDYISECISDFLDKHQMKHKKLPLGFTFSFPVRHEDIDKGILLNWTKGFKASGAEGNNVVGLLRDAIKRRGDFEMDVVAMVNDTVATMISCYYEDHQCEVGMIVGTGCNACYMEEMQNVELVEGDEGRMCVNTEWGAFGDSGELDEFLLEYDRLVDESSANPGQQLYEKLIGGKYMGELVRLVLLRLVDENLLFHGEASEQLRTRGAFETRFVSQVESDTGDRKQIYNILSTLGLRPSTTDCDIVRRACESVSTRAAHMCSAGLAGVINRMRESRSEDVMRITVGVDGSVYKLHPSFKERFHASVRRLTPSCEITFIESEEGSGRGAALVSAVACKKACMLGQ

[3] = Drug uptake in C57BL/6J mouse plasma at 30 mg/kg,po and measured after 1 hrs; type: ADME, organism-based
[4] = Drug uptake in C57BL/6J mouse plasma at 30 mg/kg,po and measured after 3 hrs; type: ADME, organism-based
[5] = molecular target: T2, Hexokinase-4 (Rattus norvegicus) (UniProt P17712); test: Activation of glucokinase in rat Primary hepatocytes assessed as fold increase in glycogen synthesis at 10 uM incubated for 30 mins using [U14C]-D-glucose as substrate by Microbeta TriLux luminescence counter analysis; type: cell-based; conditions: Primary hepatocyte, filed as activator
T2 sequence (whole entry): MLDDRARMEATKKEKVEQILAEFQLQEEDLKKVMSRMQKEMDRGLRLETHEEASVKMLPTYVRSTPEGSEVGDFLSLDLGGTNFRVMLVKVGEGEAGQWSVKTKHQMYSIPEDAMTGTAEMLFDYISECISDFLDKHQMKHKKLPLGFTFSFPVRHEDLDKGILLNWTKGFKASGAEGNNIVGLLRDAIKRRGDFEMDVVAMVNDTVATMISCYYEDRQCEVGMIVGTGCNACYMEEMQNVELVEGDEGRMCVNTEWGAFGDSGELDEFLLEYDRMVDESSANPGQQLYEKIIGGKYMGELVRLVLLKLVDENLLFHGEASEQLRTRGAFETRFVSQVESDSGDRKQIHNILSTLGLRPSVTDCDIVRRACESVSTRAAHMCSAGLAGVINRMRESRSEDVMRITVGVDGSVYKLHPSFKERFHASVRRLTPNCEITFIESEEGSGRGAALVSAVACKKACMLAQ

[6] = Cmax in C57BL/6J mouse at 30 mg/kg,po and measured after 2 hrs by LC-MS/MS analysis; type: ADME, organism-based; design: dose 30 mg/kg, time 2 hrs, route po; conditions: in vivo
[7] = Oral bioavailability in C57BL/6J mouse at 30 mg/kg and measured after 2 hrs by LC-MS/MS analysis; type: ADME, organism-based; conditions: in vivo
[8] = Drug distribution in C57BL/6J mouse in circulatory system at 30 mg/kg,po and measured after 1 hrs by LC-MS/MS analysis; type: ADME, organism-based; conditions: read-out: Drug uptake
[9] = Drug distribution in C57BL/6J mouse in circulatory system at 30 mg/kg,po and measured after 3 hrs; type: ADME, organism-based; conditions: read-out: Drug uptake
[10] = AUC(0 to t) in C57BL/6J mouse at 30 mg/kg,po; type: ADME, organism-based; design: dose 30 mg/kg, route po; conditions: in vivo
[11] = Clearance in C57BL/6J mouse at 3 mg/kg,iv and measured after 2 hrs by LC-MS/MS analysis; type: ADME, organism-based; conditions: in vivo
[12] = Volume of distribution at steady state in C57BL/6J mouse at 3 mg/kg,iv and measured after 2 hrs by LC-MS/MS analysis; type: ADME, organism-based; conditions: in vivo, read-out: Vdss
[13] = Half life in C57BL/6J mouse at 3 mg/kg,iv and measured after 2 hrs by LC-MS/MS analysis; type: ADME, organism-based; conditions: in vivo
[14] = Drug uptake in mouse hepatocytes at 1 to 100 uM incubated for 5 mins at 37 degreeC by LC-MS/MS analysis; type: ADME, cell-based, Hepatocyte; conditions: dose 1-100 µM
[15] = Drug uptake in mouse hepatocytes at 1 to 100 uM incubated for 5 mins at 4 degreeC by LC-MS/MS analysis; type: ADME, cell-based, Hepatocyte; conditions: dose 1-100 µM
[16] = Inhibition of drug uptake in mouse hepatocytes at 1 to 100 uM incubated for 5 mins in presence of rifamycin SV by LC-MS/MS analysis; type: cell-based, Hepatocyte; conditions: dose 1-100 µM
Mus musculus [17] = test: Anti-hyperglycemic activity against diet induced obese C57BL/6J mouse assessed as reduction in AUCglucose level at 30 mg/kg ,po and measured upto 180 mins by OGTT; type: functional; design: scale not given: the % may be the effect or the level left; conditions: 3 h
Mus musculus [18] = test: Anti-hyperglycemic activity against diet induced obese C57BL/6J mouse assessed as reduction in AUCglucose level at 100 mg/kg ,po and measured upto 180 mins by OGTT; type: functional; design: scale not given: the % may be the effect or the level left; conditions: 3 h
[19] = Hypoglycemic activity in normoglycemic C57BL/6J mouse at 300 mg/kg ,po and measured upto 180 mins by glucose analysis; type: toxicity, organism-based; conditions: in vivo, 3 h
[20] = Hypoglycemic activity in normoglycemic C57BL/6J mouse assessed as decrease in blood glucose level at 300 mg/kg ,po and measured upto 180 mins by glucose analysis; type: toxicity, organism-based; conditions: in vivo, 3 h
[21] = molecular target: T3, Hexokinase-4 (Homo sapiens) (UniProt P35557); test: Activation of recombinant human glucokinase assessed as increase in maximal activation by measuring accumulation of NADH at 60 uM in presence of S0.5 of glucose and NAD by plate reader analysis; conditions: filed as activator
T3 sequence (whole entry): T1 sequence (P35557 whole entry)

[22] = AUC(0 to 24 hrs) in C57BL/6J mouse at 30 mg/kg,po and measured after 2 hrs by LC-MS/MS analysis; type: ADME, organism-based; design: time 2 hrs, dose 30 mg/kg, route po; conditions: in vivo
[23] = Clearance in C57BL/6J mouse at 1 mg/kg,iv and measured after 2 hrs by LC-MS/MS analysis; type: ADME, organism-based; conditions: in vivo
[24] = Volume of distribution at steady state in C57BL/6J mouse at 1 mg/kg,iv and measured after 2 hrs by LC-MS/MS analysis; type: ADME, organism-based; conditions: in vivo, read-out: Vdss
[25] = Half life in C57BL/6J mouse at 1 mg/kg,iv and measured after 2 hrs by LC-MS/MS analysis; type: ADME, organism-based; conditions: in vivo
Mus musculus [26] = test: Anti-hyperglycemic activity against diet induced obese C57BL/6J mouse assessed as blood glucose level at 10 to 300 mg/kg ,po and measured upto 180 mins by OGTT; type: functional, organism-based; conditions: dose 10-300 mg/kg
[27] = Hypoglycemic activity in normoglycemic C57BL/6J mouse assessed as decrease in blood glucose level at 100 mg/kg ,po and measured upto 180 mins by glucose analysis; type: toxicity, organism-based; conditions: in vivo, 3 h

SMILES: CC(C)(Oc1ccc(F)cc1F)C(=O)Nc1ncc(Oc2ccc(C(=O)O)cc2)s1
- concentration at 1 h [1]: 23.3 µM
- concentration at 3 h [2]: 11.1 µM
- EC50 (Hexokinase-4): 6200 nM
- concentration at 1 h [3]: 8.8 µM
- concentration at 3 h [4]: 1.4 µM

SMILES: O=C(O)c1ccc(Oc2cnc(NC(=O)C(Oc3ccc(F)cc3F)c3ccc(S(=O)(=O)N4CCCCC4)cc3)s2)cc1 (centres undefined)
- fold change (FC) [5]: 3.4

SMILES: O=C(Nc1ncc(CN2CCCC2C(=O)O)s1)C(Oc1ccc(F)cc1F)c1ccc(S(=O)(=O)C2CC2)cc1 (centres undefined)
- EC50 (Hexokinase-4): > 10000 nM

SMILES: O=C(O)c1cccc(Oc2cnc(NC(=O)C(Oc3ccc(F)cc3F)c3ccc(S(=O)(=O)C4CC4)cc3)s2)c1 (centres undefined)
- EC50 (Hexokinase-4): 2730 nM

SMILES: O=C(O)Cc1ccc(Oc2cnc(NC(=O)C(Oc3ccc(F)cc3F)c3ccc(S(=O)(=O)C4CC4)cc3)s2)cc1 (centres undefined)
- EC50 (Hexokinase-4): 400 nM

SMILES: O=C(O)C1CCN(Cc2cnc(NC(=O)C(Oc3ccc(F)cc3F)c3ccc(S(=O)(=O)C4CC4)cc3)s2)CC1 (centres undefined)
- EC50 (Hexokinase-4): > 10000 nM

SMILES: O=C(O)c1ccc(Oc2cnc(NC(=O)C(Oc3ccc(F)cc3F)c3ccc(S(=O)(=O)C4CC4)cc3)s2)cc1 (centres undefined)
- EC50 (Hexokinase-4): 190 nM
- fold change (FC) [5]: 11.4

SMILES: O=C(O)c1ccc(Oc2cnc(NC(=O)C(Oc3ccc(F)cc3F)c3ccc(S(=O)(=O)N4CCOCC4)cc3)s2)cc1 (centres undefined)
- EC50 (Hexokinase-4): 330 nM
- fold change (FC) [5]: 3

SMILES: O=C(O)Cc1nc(NC(=O)C(Oc2ccc(F)cc2F)c2ccc(S(=O)(=O)N3CCCCC3)cc2)sc1Cl (centres undefined)
- EC50 (Hexokinase-4): 500 nM

SMILES: O=C(O)C#Cc1cnc(NC(=O)C(Oc2ccc(F)cc2F)c2ccc(S(=O)(=O)C3CC3)cc2)s1 (centres undefined)
- EC50 (Hexokinase-4): 2300 nM

SMILES: O=C(O)c1ccc(Oc2cnc(NC(=O)[C@H](Oc3ccc(F)cc3F)c3ccc(S(=O)(=O)C4CC4)cc3)s2)cc1
- Cmax [6]: 13.3 µM
- bioavailability [7]: 86%
- concentration at 1 h [1]: 215 µM
- concentration at 3 h [2]: 184 µM
- concentration at 1 h [8]: 6 µM
- concentration at 3 h [9]: 2.7 µM
- AUC(0-t) [10]: 22 µM·h
- EC50 (Hexokinase-4): 34 nM
- fold change (FC) [5]: 12.2
- clearance [11]: 32.6 mL/min/kg
- Vd [12]: 1.67 L/kg
- half-life [13]: 2.16 h
- Drug uptake [14]: 30%
- Drug uptake [15]: < 5%
- inhibition at 5 min, up to 100 µM ([16]; mouse hepatocytes, with rifamycin SV): 90%
- Activity (Mus musculus [17]): 21%
- Activity (Mus musculus [18]): 34%
- Activity [19]: Not Active
- Activity [20]: Active

SMILES: O=C(O)c1ccc(Cc2cnc(NC(=O)C(Oc3ccc(F)cc3F)c3ccc(S(=O)(=O)C4CC4)cc3)s2)cc1 (centres undefined)
- EC50 (Hexokinase-4): 450 nM

SMILES: CC(Oc1ccc(F)cc1F)(C(=O)Nc1nc(CC(=O)O)c(Cl)s1)c1ccc(S(=O)(=O)N2CCCCC2)cc1 (centres undefined)
- EC50 (Hexokinase-4): > 20000 nM
- Activity [21]: 60%

SMILES: O=C(O)c1ccc(Oc2cnc(NC(=O)C(Oc3ccc(F)cc3F)c3ccc(S(=O)(=O)N4CCCC4)cc3)s2)cc1 (centres undefined)
- EC50 (Hexokinase-4): 240 nM
- fold change (FC) [5]: 3.76

SMILES: O=C(O)c1ccc(Oc2cnc(NC(=O)C(Oc3ccc(F)cc3F)c3ccc(S(=O)(=O)C4CCOCC4)cc3)s2)cc1 (centres undefined)
- EC50 (Hexokinase-4): 310 nM
- fold change (FC) [5]: 3.04

SMILES: O=C(O)c1ccc(Oc2cnc(NC(=O)[C@@H](Oc3ccc(F)cc3F)c3ccc(S(=O)(=O)C4CC4)cc3)s2)cc1
- EC50 (Hexokinase-4): 690 nM

SMILES: CC(C)(Oc1ccc(F)cc1F)C(=O)Nc1nc(CC(=O)O)c(Cl)s1
- Cmax [6]: 326 µM
- AUC(0-t) at 2 h [22]: 802 µM·h
- clearance [23]: 3.5 mL/min/kg
- Vd [24]: 0.4 L/kg
- half-life [25]: 1 h
- bioavailability [7]: 100%
- concentration at 1 h [1]: 111 µM
- concentration at 3 h [2]: 104 µM
- concentration at 1 h [8]: 220 µM
- concentration at 3 h [9]: 85 µM
- EC50 (Hexokinase-4): 7000 nM
- Activity (Mus musculus [26]): Dose-Dependent Effect
- Activity [27]: < 60 mg/dL
- Drug uptake [14]: < 5%
- Drug uptake [15]: 5%
- inhibition (INH) ([16]; hepatocytes, 5 min, 100 µM): Not Active
